This data set relates to CCRIS mutagenicity, Ames/micronucleus/aberration tests. Description: CCRIS mutagenicity studies.
Setting [1] is: End Point: IN VITRO CHROMOSOMAL ABERRATIONS, Test System: CHL CELLS, Metabolic Activation: RAT, LIVER, S-9, SODIUM PHENOBARBITAL AND 5,6-BENZOFLAVONE
Setting [2] is: Test System: AMES SALMONELLA TYPHIMURIUM, Strain/Indicator: TA98, Metabolic Activation: NONE, Method: PREINCUBATION
Where [3] appears, read: Test System: AMES SALMONELLA TYPHIMURIUM, Strain/Indicator: TA100, Metabolic Activation: NONE, Method: PREINCUBATION
[4] abbreviates: Test System: AMES SALMONELLA TYPHIMURIUM, Strain/Indicator: TA1535, Metabolic Activation: NONE, Method: PREINCUBATION
Where [5] appears, read: Test System: AMES SALMONELLA TYPHIMURIUM, Strain/Indicator: TA1537, Metabolic Activation: NONE, Method: PREINCUBATION
[6] abbreviates: Test System: AMES SALMONELLA TYPHIMURIUM, Strain/Indicator: TA98, Metabolic Activation: NONE, Method: STANDARD PLATE.
[7] abbreviates: Test System: AMES SALMONELLA TYPHIMURIUM, Strain/Indicator: TA98, Metabolic Activation: RAT, LIVER, S-9, AROCLOR 1254, Method: STANDARD PLATE.
Where [8] appears, read: Test System: AMES SALMONELLA TYPHIMURIUM, Strain/Indicator: TA100, Metabolic Activation: NONE, Method: STANDARD PLATE.
Where [9] appears, read: Test System: AMES SALMONELLA TYPHIMURIUM, Strain/Indicator: TA100, Metabolic Activation: RAT, LIVER, S-9, AROCLOR 1254, Method: STANDARD PLATE.
The mark [10] stands for this setting: Test System: AMES SALMONELLA TYPHIMURIUM, Strain/Indicator: TA1537, Metabolic Activation: NONE, Method: STANDARD PLATE.
Setting [11] is: Test System: AMES SALMONELLA TYPHIMURIUM, Strain/Indicator: TA1537, Metabolic Activation: RAT, LIVER, S-9, AROCLOR 1254, Method: STANDARD PLATE.

Each structure is given as a SMILES string. Active and inactive are the calls of the source. The rule behind the calls is not given here.

`CC(=O)Nc1cc(N(CCOC(C)=O)CCOC(C)=O)ccc1N=Nc1ccc([N+](=O)[O-])cc1Cl`: the mutagenic call (End Point: IN VITRO CHROMOSOMAL ABERRATIONS, Test System: CHL CELLS, Metabolic Activation: NONE) is “inactive; negative” and the mutagenic call under setting [1] was “inactive; negative”.

Consider `O.[Cu].[Cu]`, for which the mutagenic call under setting [2] was “inactive; negative”; the mutagenic call (Test System: AMES SALMONELLA TYPHIMURIUM, Strain/Indicator: TA98, Metabolic Activation: RAT, LIVER, S-9, KC 500, Method: PREINCUBATION) was “inactive; negative”; the mutagenic call under setting [3] is “inactive; negative”; the mutagenic call (Test System: AMES SALMONELLA TYPHIMURIUM, Strain/Indicator: TA100, Metabolic Activation: RAT, LIVER, S-9, KC 500, Method: PREINCUBATION) was “inactive; negative”; the mutagenic call under setting [4] was “inactive; negative”; the mutagenic call (Test System: AMES SALMONELLA TYPHIMURIUM, Strain/Indicator: TA1535, Metabolic Activation: RAT, LIVER, S-9, KC 500, Method: PREINCUBATION) was “inactive; negative”. For the same compound, the mutagenic call by setting is: under setting [5], “inactive; negative”; (Test System: AMES SALMONELLA TYPHIMURIUM, Strain/Indicator: TA1537, Metabolic Activation: RAT, LIVER, S-9, KC 500, Method: PREINCUBATION) “inactive; negative”; (Test System: AMES SALMONELLA TYPHIMURIUM, Strain/Indicator: TA1538, Metabolic Activation: NONE, Method: PREINCUBATION) “inactive; negative”; (Test System: AMES SALMONELLA TYPHIMURIUM, Strain/Indicator: TA1538, Metabolic Activation: RAT, LIVER, S-9, KC 500, Method: PREINCUBATION) “inactive; negative”; (Test System: E. COLI, Strain/Indicator: WP2 UVRA, Metabolic Activation: NONE, Method: PREINCUBATION) “inactive; negative”; (Test System: E. COLI, Strain/Indicator: WP2 UVRA, Metabolic Activation: RAT, LIVER, S-9, KC 500, Method: PREINCUBATION) “inactive; negative”.

With `CC1(C)C[C@H]2C=C(C=O)[C@@]3(C=O)C[C@@]3(C)[C@H]2C1`, the mutagenic call (Test System: CHINESE HAMSTER V-79, Strain/Indicator: V-79/6-THIOGUANINE (HGPRT), Metabolic Activation: NONE) was “inactive; negative”.

For `C1CCC2OCCOCCOC3CCCCC3OCCOCCOC2C1` (configuration not stated), the mutagenic call is, setting by setting: under setting [6], “inactive; negative”; under setting [7], “inactive; negative”; under setting [8], “inactive; negative”; under setting [9], “inactive; negative”; (Test System: AMES SALMONELLA TYPHIMURIUM, Strain/Indicator: TA1530, Metabolic Activation: NONE, Method: STANDARD PLATE) “inactive; negative”; (Test System: AMES SALMONELLA TYPHIMURIUM, Strain/Indicator: TA1530, Metabolic Activation: RAT, LIVER, S-9, AROCLOR 1254, Method: STANDARD PLATE) “inactive; negative”. Further, the mutagenic call runs as follows: under setting [10], “inactive; negative”; under setting [11], “inactive; negative”.

Take `CC1(C)C(=O)[C@]2(C)CC[C@H]1C2`: the mutagenic call runs as follows: (Test System: AMES SALMONELLA TYPHIMURIUM, Strain/Indicator: TA98, Metabolic Activation: HAMSTER, LIVER, S-9, AROCLOR 1254, Method: STANDARD PLATE) “inactive; negative”; under setting [6], “inactive; negative”; under setting [7], “inactive; negative”; (Test System: AMES SALMONELLA TYPHIMURIUM, Strain/Indicator: TA100, Metabolic Activation: HAMSTER, LIVER, S-9, AROCLOR 1254, Method: STANDARD PLATE) “inactive; negative”; under setting [8], “inactive; negative”; under setting [9], “inactive; negative”. In addition, the mutagenic call is “inactive; negative” (Test System: AMES SALMONELLA TYPHIMURIUM, Strain/Indicator: TA102, Metabolic Activation: HAMSTER, LIVER, S-9, AROCLOR 1254, Method: STANDARD PLATE); “inactive; negative” (Test System: AMES SALMONELLA TYPHIMURIUM, Strain/Indicator: TA102, Metabolic Activation: NONE, Method: STANDARD PLATE); “inactive; negative” (Test System: AMES SALMONELLA TYPHIMURIUM, Strain/Indicator: TA102, Metabolic Activation: RAT, LIVER, S-9, AROCLOR 1254, Method: STANDARD PLATE); “inactive; negative” (Test System: AMES SALMONELLA TYPHIMURIUM, Strain/Indicator: TA1535, Metabolic Activation: HAMSTER, LIVER, S-9, AROCLOR 1254, Method: STANDARD PLATE); “inactive; negative” (Test System: AMES SALMONELLA TYPHIMURIUM, Strain/Indicator: TA1535, Metabolic Activation: NONE, Method: STANDARD PLATE); “inactive; negative” (Test System: AMES SALMONELLA TYPHIMURIUM, Strain/Indicator: TA1535, Metabolic Activation: RAT, LIVER, S-9, AROCLOR 1254, Method: STANDARD PLATE). Also, the mutagenic call (Test System: AMES SALMONELLA TYPHIMURIUM, Strain/Indicator: TA1537, Metabolic Activation: HAMSTER, LIVER, S-9, AROCLOR 1254, Method: STANDARD PLATE) is “inactive; negative”; the mutagenic call under setting [10] is “inactive; negative”; the mutagenic call under setting [11] was “inactive; negative”; the mutagenic call (Test System: Mouse lymphoma, Strain/Indicator: L5178Y (tk+/tk-), Metabolic Activation: None, Method: Suspension/plate) was “inactive; negative”; the mutagenic call (Test System: Mouse lymphoma, Strain/Indicator: L5178Y (tk+/tk-), Metabolic Activation: Rat, Liver, S-9, Aroclor 1254, Method: Suspension/plate) was “active; positive”.

Consider `Nc1cc(Cl)ccc1[N+](=O)[O-]`, for which the mutagenic call is “active; positive (structural changes); authors report equivocal results for ploidy chang” under setting [1]; “active; positive” under setting [2]; “active; positive” (Test System: AMES SALMONELLA TYPHIMURIUM, Strain/Indicator: TA98, Metabolic Activation: RAT LIVER S-9, PHENOBARBITAL AND BETA-NAPHTHOFLAVONE, Method: PREINCUBATION); “inactive; negative” under setting [3]; “inactive; negative” (Test System: AMES SALMONELLA TYPHIMURIUM, Strain/Indicator: TA100, Metabolic Activation: RAT LIVER S-9, PHENOBARBITAL AND BETA-NAPHTHOFLAVONE, Method: PREINCUBATION); “inactive; negative” under setting [4]. Besides, the mutagenic call runs as follows: (Test System: AMES SALMONELLA TYPHIMURIUM, Strain/Indicator: TA1535, Metabolic Activation: RAT LIVER S-9, PHENOBARBITAL AND BETA-NAPHTHOFLAVONE, Method: PREINCUBATION) “inactive; negative”; under setting [5], “inactive; negative”; (Test System: AMES SALMONELLA TYPHIMURIUM, Strain/Indicator: TA1537, Metabolic Activation: RAT LIVER S-9, PHENOBARBITAL AND BETA-NAPHTHOFLAVONE, Method: PREINCUBATION) “inactive; negative”; (Test System: E.COLI, Strain/Indicator: WP2UVRA, Metabolic Activation: NONE, Method: PREINCUBATION) “inactive; negative”; (Test System: E.COLI, Strain/Indicator: WP2UVRA, Metabolic Activation: RAT LIVER S-9, PHENOBARBITAL AND BETA-NAPHTHOFLAVONE, Method: PREINCUBATION) “inactive; negative”.

In the case of `CC1CN1P(=O)(N1CC1C)N1CC1C` (configuration not stated), the mutagenic call (Test System: AMES SALMONELLA TYPHIMURIUM, Strain/Indicator: G46, Metabolic Activation: HOST MEDIATED, Method: STANDARD PLATE) was “active; positive”.

For the origin of these results see PubChem BioAssay AID1259407 (Chemical Carcinogenesis Research Information System (CCRIS), 2018).
